Laboratory results: patent US6420172B1, “Method for inducing tumor immunity” (TIB Company, LLC, priority 1992, dated 2002)

Columns and labels:
tumor cells = conditions: literature reports; cited from earlier work
transfected C6 cells = assay: 3H-thymidine incorporation into transfected C6 cells in serum-free medium; type: cell-based, rat; conditions: 48 hours, 50 μg/ml
From the text: The mechanism underlying the loss of tumorigenicity for the antisense IGF-1 transfectants is linked to enhanced immunogenicity. Applicant notes a striking infiltration of mononuclear cells surrounding the injected C6 transfected cells in vivo. No such infiltrates ere apparent for the parental (IGF-I positive) cells in he tumors formed in vivo. […] This possibility is substantiated by the examples provided below. This immunological component may exist together with an antiproliferative effect. C6 cellular proliferation is likely to involve factors in addition to IGF-1, however, since the rate of incorporation of ^3H-thymidine into transfected C6 cells cultured for 48 hours in serum-free medium was unaffected by the presence of ZnSO^4 or IGF-I protein (50 μg/ml) in the culture medium (data not shown).

| Molecule | tumor development in vivo (tumor cells) | rate of incorporation of 3H-thymidine in the presence of IGF-I protein (transfected C6 cells) |
| --- | --- | --- |
| C[C@@H](O)[C@@H]1NC(=O)[C@H](CCCCN)NC(=O)[C@@H](Cc2c[nH]c3ccccc23)NC(=O)[C@H](Cc2ccccc2)NC(=O)[C@@H](NC(=O)[C@H](N)Cc2ccccc2)CSSC[C@@H](C(=O)N[C@H](CO)[C@@H](C)O)NC1=O [octreotide] | not blocked |  |
| IGF-I protein: Insulin-like growth factor I protein added to the culture medium |  | unaffected |
